Reference: ChEMBL document CHEMBL1201862, “PubChem BioAssay data set” (2004)
Blank lines part the entries; values can stand above or below the compound they belong to. Active and inactive are the calls of the source.

Tests used:
[1] = molecular target: T1, Probable nicotinate-nucleotide adenylyltransferase (Staphylococcus aureus (strain N315), UniProt P65502); type: functional, Staphylococcus aureus subsp. aureus N315;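 on IC50 Mean: confirmatory dose-response retesting of NadD inhibitor hits first found in an ultra-high-throughput screen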
[2] = molecular target: T1, Probable nicotinate-nucleotide adenylyltransferase; type: functional, Staphylococcus aureus subsp. aureus N315; conditions: read-out: IC50_Mean
[3] = molecular target: T2, Zinc finger protein mex-5 (Caenorhabditis elegans, UniProt Q9XUB2); experiment: potency of MEX-5 RNA-binding blockers – biochemical, C. elegans, fluorescence polarization, dose response (AID 1960)
T2 sequence (Q9XUB2 whole entry): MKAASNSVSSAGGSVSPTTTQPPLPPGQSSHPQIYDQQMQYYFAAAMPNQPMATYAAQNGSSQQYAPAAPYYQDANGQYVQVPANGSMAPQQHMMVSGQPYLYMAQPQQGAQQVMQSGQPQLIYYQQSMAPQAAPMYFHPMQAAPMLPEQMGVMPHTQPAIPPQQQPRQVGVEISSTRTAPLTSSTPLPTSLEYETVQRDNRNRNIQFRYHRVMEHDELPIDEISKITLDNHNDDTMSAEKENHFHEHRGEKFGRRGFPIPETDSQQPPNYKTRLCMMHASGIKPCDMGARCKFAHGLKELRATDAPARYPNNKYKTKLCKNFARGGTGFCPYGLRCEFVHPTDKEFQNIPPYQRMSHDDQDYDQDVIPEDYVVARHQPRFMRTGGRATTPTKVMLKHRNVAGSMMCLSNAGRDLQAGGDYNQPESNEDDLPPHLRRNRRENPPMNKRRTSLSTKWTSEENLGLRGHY

[4] = molecular target: T3, RNA-binding protein pos-1 (Caenorhabditis elegans, UniProt G5EF15); experiment: disruptors of C. elegans POS-1 RNA interaction – biochemical, fluorescence polarization, dose response (AID 1964);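 further: purified POS-1 fused to maltose binding protein made in E. coli; potency of compounds blocking POS-1 binding to fluorescent RNA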
T3 sequence (G5EF15 whole entry): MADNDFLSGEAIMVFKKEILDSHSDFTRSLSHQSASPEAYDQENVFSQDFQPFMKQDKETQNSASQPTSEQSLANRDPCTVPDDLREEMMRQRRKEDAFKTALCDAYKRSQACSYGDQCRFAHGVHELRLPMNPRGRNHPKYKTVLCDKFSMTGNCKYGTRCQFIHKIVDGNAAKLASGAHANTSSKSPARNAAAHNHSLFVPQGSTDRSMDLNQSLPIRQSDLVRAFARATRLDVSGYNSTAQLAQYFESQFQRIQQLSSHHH

[5] = molecular target: 26S proteasome non-ATPase regulatory subunit 14 (Homo sapiens, UniProt O00487); experiment: inhibition of proteasome subunit RPN11 – biochemical, fluorescence polarization, uHTS hits, confirmation (AID 602368); type: functional
[6] = molecular target: T4, Protein skinhead-1 (Caenorhabditis elegans, UniProt P34707); type: functional
T4 sequence (P34707 whole entry): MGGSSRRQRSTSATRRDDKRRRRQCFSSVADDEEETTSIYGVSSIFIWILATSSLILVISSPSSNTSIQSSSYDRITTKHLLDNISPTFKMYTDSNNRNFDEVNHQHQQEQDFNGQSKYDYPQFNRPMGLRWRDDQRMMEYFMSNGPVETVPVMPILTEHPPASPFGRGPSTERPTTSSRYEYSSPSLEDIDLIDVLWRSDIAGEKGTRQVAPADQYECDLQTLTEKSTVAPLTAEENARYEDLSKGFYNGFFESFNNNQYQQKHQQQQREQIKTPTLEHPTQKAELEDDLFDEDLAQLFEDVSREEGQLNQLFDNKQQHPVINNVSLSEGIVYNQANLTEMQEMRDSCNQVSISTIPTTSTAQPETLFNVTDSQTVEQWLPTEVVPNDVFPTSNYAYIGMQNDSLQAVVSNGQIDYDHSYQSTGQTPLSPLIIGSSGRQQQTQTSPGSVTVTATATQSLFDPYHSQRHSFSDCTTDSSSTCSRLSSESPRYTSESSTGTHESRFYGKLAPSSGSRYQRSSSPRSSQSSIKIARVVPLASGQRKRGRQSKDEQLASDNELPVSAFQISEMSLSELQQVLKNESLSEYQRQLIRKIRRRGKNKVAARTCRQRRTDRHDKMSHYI

[7] = molecular target: 72 kDa type IV collagenase (Homo sapiens, UniProt P08253); experiment: Dose Response validation of uHTS RPN11 inhibitor hits using a MMP-2 Fluorescence assay.; type: functional
[8] = molecular target: Prothrombin (Bos taurus, UniProt P00735); experiment: thrombin protease inhibitors – biochemical, fluorescence polarization, uHTS hits, dose response (AID 602369); type: functional
[9] = molecular target: Kallikrein-7 (Homo sapiens, UniProt P49862); experiment: Fluorescence Intensity-based biochemical primary high throughput dose response assay to identify activators of kallikrein-7 (K7) zymogen.
[10] = molecular target: T5, COUP transcription factor 2 (Homo sapiens, UniProt P24468); experiment: Luminescence-based cell-based high throughput dose response assay to identify inhibitors of COUP-TFII (NR2F2).; type: functional;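 further: HEK293 cells transiently cotransfected with COUP-TFII expression vector and reporter; luciferase reporter luminescence driven by COUP-TFII from the pX2-168 reporter plasmid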
T5 sequence (P24468 whole entry): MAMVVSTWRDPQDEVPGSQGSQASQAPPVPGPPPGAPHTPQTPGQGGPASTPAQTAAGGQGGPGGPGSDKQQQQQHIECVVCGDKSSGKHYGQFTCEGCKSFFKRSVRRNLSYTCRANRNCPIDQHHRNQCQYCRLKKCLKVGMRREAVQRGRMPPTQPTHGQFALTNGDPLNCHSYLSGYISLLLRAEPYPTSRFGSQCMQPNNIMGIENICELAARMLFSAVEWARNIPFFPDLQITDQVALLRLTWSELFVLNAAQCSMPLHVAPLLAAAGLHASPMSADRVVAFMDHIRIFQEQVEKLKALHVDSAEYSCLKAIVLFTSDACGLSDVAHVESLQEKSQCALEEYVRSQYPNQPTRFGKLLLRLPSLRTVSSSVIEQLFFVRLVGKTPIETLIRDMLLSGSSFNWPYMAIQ

[11] = reduction of Shn3 3'UTR-driven luciferase in osteoblasts – cell-based, Clone20 osteoblasts, firefly luciferase, cherry-picked, dose response (AID 624132); type: functional;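 further: firefly luciferase luminescence from reporter carrying the Shn3 3'UTR in osteoblasts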
[12] = Trypanosoma cruzi growth suppression in host cells – NIH3T3 host cells, beta-gal luminescence, confirmation (AID 2044); type: functional, cell-based;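 further: intracellular parasites grown in NIH/3T3 mouse fibroblasts as host cells; luminescent beta-galactosidase reporter signal from transgenic T. cruzi replicating inside host cells; inhibitors lower the luminescence signal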
[13] = system: INS1; experiment: INS-1E survival protection against cytokine death – cell-based, luminescence, retest, dose response (AID 449756); type: functional; conditions: Rattus norvegicus;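 further: cell death triggered by IL-1 beta plus TNF-alpha plus IFN-gamma mixture; protective hits raise ATP signal compared with cytokine alone wells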
[14] = non-specific 3'UTR reporter inhibition in Clone20-Shn3RL – cell-based, Renilla luciferase, cherry-picked, counter-screen for Shn3 inhibitor project, dose response (AID 624133); type: functional
[15] = HEK-293T viability loss after treatment – luminescence, T-cell screen hits, cytotoxicity control for TCR NF-kB inhibitor project, dose response (AID 489026); type: functional, cell-based;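 further: cells exposed to compound about 14 hours before the viability readout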
[16] = loss of viability in HepG2 cells – cell-based, CellTiter-Glo, cherry-picked, cytotoxicity control for Shn3 inhibitor project, dose response (AID 624134); type: functional
[17] = NIH3T3 cell viability loss – ATP luminescence, mouse fibroblasts, counter-screen, dose response (AID 2010); type: functional, cell-based;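 further: cells exposed to compound for about 90 hours before reading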
[18] = general mammalian cell viability loss – inhibitor set, cherry-pick, set 2, cytotoxicity control for miR-122 modulator project, dose response (AID 720697); type: functional, cell-based
[19] = activation of miR-122 Renilla sensor silencing – cell-based, Huh7 psiCHECK-miR122, Renilla luciferase, cherry-picked, dose response (AID 651956); type: functional;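 further: huh7 hepatoma cells stably carrying a psiCHECK-2 miR-122 sensor plasmid; renilla luciferase signal reporting endogenous miR-122 activity after 48 h compound exposure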

Chain of 26S proteasome non-ATPase regulatory subunit 14 (O00487 whole entry): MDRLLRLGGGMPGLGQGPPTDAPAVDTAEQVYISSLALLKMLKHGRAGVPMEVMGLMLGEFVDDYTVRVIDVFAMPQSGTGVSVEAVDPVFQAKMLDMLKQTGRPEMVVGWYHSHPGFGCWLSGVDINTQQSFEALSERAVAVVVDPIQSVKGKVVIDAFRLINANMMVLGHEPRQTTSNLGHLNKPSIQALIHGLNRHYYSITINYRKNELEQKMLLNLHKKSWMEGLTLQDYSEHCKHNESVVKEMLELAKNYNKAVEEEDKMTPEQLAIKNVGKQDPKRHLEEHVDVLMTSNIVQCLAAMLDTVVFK
Chain of 72 kDa type IV collagenase (P08253 whole entry): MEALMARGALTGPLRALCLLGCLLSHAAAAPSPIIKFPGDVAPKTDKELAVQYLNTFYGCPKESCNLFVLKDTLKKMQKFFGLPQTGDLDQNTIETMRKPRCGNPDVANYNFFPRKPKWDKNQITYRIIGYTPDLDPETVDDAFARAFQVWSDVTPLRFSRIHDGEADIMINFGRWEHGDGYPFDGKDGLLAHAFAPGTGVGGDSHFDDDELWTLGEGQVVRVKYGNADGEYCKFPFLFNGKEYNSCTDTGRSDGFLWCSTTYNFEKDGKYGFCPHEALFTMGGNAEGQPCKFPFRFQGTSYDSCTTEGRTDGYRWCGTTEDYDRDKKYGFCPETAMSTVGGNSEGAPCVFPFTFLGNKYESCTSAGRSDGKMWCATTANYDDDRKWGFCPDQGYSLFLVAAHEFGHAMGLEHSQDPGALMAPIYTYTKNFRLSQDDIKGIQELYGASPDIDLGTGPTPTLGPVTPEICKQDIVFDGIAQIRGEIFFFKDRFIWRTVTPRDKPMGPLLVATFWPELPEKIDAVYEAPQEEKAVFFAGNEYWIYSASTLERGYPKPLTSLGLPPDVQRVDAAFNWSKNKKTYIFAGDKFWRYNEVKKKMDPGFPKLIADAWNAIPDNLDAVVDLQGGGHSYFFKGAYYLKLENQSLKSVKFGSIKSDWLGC
Chain of Kallikrein-7 (P49862 whole entry): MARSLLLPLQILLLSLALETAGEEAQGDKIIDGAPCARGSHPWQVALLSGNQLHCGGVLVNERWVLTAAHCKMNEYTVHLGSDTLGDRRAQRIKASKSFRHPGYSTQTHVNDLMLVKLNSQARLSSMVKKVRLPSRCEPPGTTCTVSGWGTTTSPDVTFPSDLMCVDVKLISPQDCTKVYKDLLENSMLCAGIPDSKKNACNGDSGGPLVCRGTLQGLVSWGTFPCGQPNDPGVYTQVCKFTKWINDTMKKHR

IC50 [5]: 13.9 µM (active)
IC50 [6]: > 100 µM (inactive)
IC50 [7]: > 100 µM (inactive)
IC50 [8]: 32.4 µM (active)
Structure (SMILES): Cn1c2ccccc2c2cc(C(=O)OCC(=O)N3CC(=O)Nc4ccccc43)sc21

IC50 [1]: 5.76 µM (active)
IC50 [2]: 14.2 µM (active)
EC50 [3]: 26.7 µM (active)
EC50 [4]: 30.9 µM (active)
Structure (SMILES): COC(=O)CCCC1=CC2=CC(=O)C(C)(OC(=O)CCc3ccccc3)C(=O)C2=CO1 (stereo not drawn)

The remaining lines, values behind:

Structure (SMILES): CCCCC1=CC2=CC(=O)C(C)(OC(=O)CC)C(=O)C2=CO1 (stereo not drawn)
IC50 [1]: 9.32 µM (active)
IC50 [2]: 24 µM (active)
EC50 [3]: 21.6 µM (active)
EC50 [4]: 27.8 µM (active)

Structure (SMILES): N#C/C(=C/c1ccc(-c2ccc(S(N)(=O)=O)cc2)o1)C(=O)Nc1ccccc1
EC50 [9]: 9.54 µM (active)

Structure (SMILES): COc1ccc(-c2csc(NC(=O)C3CCN(c4ncnc5sc(C)c(C)c45)CC3)n2)cc1OC
IC50 [10]: 3.82 µM (active)
AC50 [11]: 1.42 µM (active)
EC50 [12]: 1.37 µM (active)
AC50 [13]: 3.6 µM (active)
AC50 [14]: 0.857 µM (active)
IC50 [15]: > 80 µM (inactive)
AC50 [16]: 1.86 µM (active)
EC50 [17]: > 60 µM (not active)

Structure (SMILES): CCOc1ccc2nc(NS(=O)(=O)c3cccs3)sc2c1
AC50 [18]: 1.99 µM (active)
AC50 [19]: 6.98 µM (active)
